Measurements from article PMC10044245, “Comparative Evaluation of Existing and Rationally Designed Novel Antimicrobial Peptides for Treatment of Skin and Soft Tissue Infections” (Antibiotics, 2023).
In brackets after ≈: the same amount, converted by molar mass. Where a SMILES comes first, the peptide text is derived from it.

What was measured:
[1] = tested on: BALB/c 3T3 murine fibroblast cell line; experiment: Cytotoxicity, neutral red uptake assay; type: cell-based; conditions: for IC50, viability of Balb/c 3T3 cells: 48 h
From the text: The BALB/c 3T3 murine fibroblast cell line was obtained from ATCC (American Type Culture Collection, Manassas, VA, USA). Primary human dermal fibroblasts were isolated by enzymatic digestion from skin biopsies in the Laboratory of Bioanalytical and Biodosimetry Methods, University of Latvia, in accordance with the approval of the Committee of Research Ethics of the Institute of Cardiology and Regenerative Medicine, University of Latvia. Cells were propagated in DMEM medium (Sigma, Irvine, UK), supplemented with 1% penicillin (100 U/mL)–streptomycin (100 μg/mL), and 10% calf serum (Sigma, St. Louis, MO, USA) for Balb/c 3T3 cell line and fetal bovine serum (Sigma, St. Louis, MO, USA) for primary dermal fibroblasts. All cultivations were performed in a humidified 5% CO2 atmosphere at 37 °C.
The cytotoxicity of the peptides was tested in the BALB/c3T3 cell line and primary dermal fibroblasts by the neutral red (NR) uptake assay. Cells were seeded in 96-well plates at a density of 5 × 10^3 cells per well. After 24 h of incubation, peptides in a concentration range of 3.9 to 500 μg/mL were added. Dilutions were made in a cell cultivation medium. Cultivation in the presence of extracts was performed for 48 h. Afterwards, plates were washed with phosphate-buffered saline (PBS) (Sigma, Irvine, UK), and a 25 µg/mL NR solution (Sigma, Irvine, UK) diluted in 5%-fetal-calf-serum-containing-media was added. After 3 h, incubation in a humidified 5% CO2 atmosphere at 37 °C, the plate was washed with PBS, and the NR taken up by viable cells was extracted using desorbing fixative (50% ethanol/1% acetic acid/49% water). Absorbance at 540 nm was measured using a microplate reader Tecan Infinite® 200 PRO (Tecan Group Ltd., Mannedorf, Switzerland). Cytotoxicity was expressed as a concentration-dependent reduction in the uptake of NR, compared to the untreated controls and calculated using the following equation: Cell viability (%)=Abs540nm(treatment)−Abs540nm(background)/Abs540nm(untreated control)−Abs540nm(background)×100%

S. aureus = experiment: microbe, parasite or virus in culture; type: cell-based, Staphylococcus aureus; conditions: for MIC: Staphylococcus aureus, 96-well plate, serial dilutions, 32 °C, 13–18 h, 200 rpm, OD 550 nm
Procedure: (§1) Quantification of the antimicrobial resistance against various AMPs was carried out by measuring the bacterial growth in the presence of peptides at serial dilutes in 96 well plates in a microplate (96-well plate) reader Infinite® M200 PRO Multimode Microplate Reader (Tecan, Maennedorf, Switzerland) according to our recent reports. All bacterial strains were incubated at 32 °C for 13–18 h at 200 rpm. Optical density measurements (λ = 550 nm) were taken automatically at 10 min intervals. Antimicrobial resistance activity was quantified as the minimum inhibitory concentration (MIC)—the lowest concentration of a peptide which prevents growth of bacterial cells.

P. aeruginosa = experiment: microbe, parasite or virus in culture; type: cell-based, Pseudomonas aeruginosa; conditions: for MIC: Pseudomonas aeruginosa, 96-well plate, serial dilutions, 32 °C, 13–18 h, 200 rpm, OD 550 nm
Procedure: as §1

K. pneumonia = experiment: microbe, parasite or virus in culture; type: cell-based, Klebsiella pneumoniae; conditions: for MIC: Klebsiella pneumoniae, 96-well plate, serial dilutions, 32 °C, 13–18 h, 200 rpm, OD 550 nm
Procedure: as §1

E. faecium = experiment: microbe, parasite or virus in culture; type: cell-based, Enterococcus faecium
Procedure: as §1

E. coli = experiment: microbe, parasite or virus in culture; type: cell-based, Escherichia coli; conditions: for MIC: Escherichia coli, 96-well plate, serial dilutions, 32 °C, 13–18 h, 200 rpm, OD 550 nm, lowest concentration preventing growth
Procedure: as §1

C. acnes = experiment: microbe, parasite or virus in culture; type: cell-based, Cutibacterium acnes; conditions: for MIC: Cutibacterium acnes, 96-well plate, serial dilutions, 32 °C, 13–18 h, 200 rpm, OD 550 nm
Procedure: as §1

MIC S. aureus (S. aureus) | MIC P. aeruginosa (P. aeruginosa) | MIC K. pneumonia (K. pneumonia) | MIC E. faecium (E. faecium) | MIC C. acnes (C. acnes) | MIC (S. aureus) | MIC (K. pneumonia) | MIC E. coli (E. coli) | MIC (P. aeruginosa) | MIC (E. faecium; Enterococcus faecium, 96-well plate, serial dilutions, 32 °C, 13–18 h, 200 rpm, OD 550 nm) | MIC (E. coli) | MIC (C. acnes) | SMILES | IC50, viability of Balb/c 3T3 cells [1] | Therapeutic Index S. aureus (S. aureus) | Therapeutic Index P. aeruginosa (P. aeruginosa) | Therapeutic Index K. pneumonia (K. pneumonia) | Therapeutic Index E. faecium (E. faecium) | Therapeutic Index E. coli (E. coli) | Therapeutic Index C. acnes (C. acnes) | reduction of cell viability ([1]; Balb/c 3T3, at 500 μg/mL)
4.0 µg/mL (≈ 1.51 µM) | 4.0 µg/mL (≈ 1.51 µM) | 8.0 µg/mL (≈ 3.03 µM) | 16.0 µg/mL (≈ 6.06 µM) | 0.3 µg/mL (≈ 0.114 µM) | – | – | – | – | – | – | – | CC[C@H](C)[C@H](N)C(=O)N[C@@H](C)C(=O)N[C@@H](CCCCN)C(=O)N[C@@H](CCCCN)C(=O)N[C@@H](Cc1ccccc1)C(=O)N[C@@H](Cc1c[nH]c2ccccc12)C(=O)N1CCC[C@H]1C(=O)N[C@@H](CCCCN)C(=O)N[C@@H](Cc1ccccc1)C(=O)N[C@@H](Cc1c[nH]c2ccccc12)C(=O)N[C@@H](CCCCN)C(=O)N[C@@H](Cc1ccccc1)C(=O)N[C@@H](Cc1c[nH]c2ccccc12)C(=O)N[C@@H](CCCCN)C(=O)N[C@H](C(=O)N[C@@H](Cc1ccccc1)C(=O)N[C@@H](CCCCN)C(=O)N[C@@H](CCCCN)C(=O)N[C@H](C(=O)N[C@@H](C)C(=O)O)[C@@H](C)CC)[C@@H](C)CC [Peptide R13] (H-IAKKFWPKFWKFWKIFKKIA-OH) | 79.37 µg/mL | 19.8 | 19.8 | 9.9 | 4.9 | 19.8 | 263.3 | –
– | – | – | – | – | 0.5 µg/mL | 8 µg/mL | – | – | – | – | – | CC[C@H]1OC(=O)[C@H](C)[C@@H](O[C@H]2C[C@@](C)(OC)[C@@H](O)[C@H](C)O2)[C@H](C)[C@@H](O[C@@H]2O[C@H](C)C[C@H](N(C)C)[C@H]2O)[C@](C)(O)C[C@@H](C)CN(C)[C@H](C)[C@@H](O)[C@]1(C)O [Azythromycin, Azithromycin dihydrate, reference compound] | – | – | – | – | – | – | – | –
2.0 µg/mL (≈ 0.862 µM) | 16.0 µg/mL (≈ 6.89 µM) | 16.0 µg/mL (≈ 6.89 µM) | 4.0 µg/mL (≈ 1.72 µM) | 16.0 µg/mL (≈ 6.89 µM) | – | – | 31.0 µg/mL (≈ 13.4 µM) | – | – | – | – | CC[C@H](C)[C@H](NC(=O)[C@H](CCCNC(=N)N)NC(=O)[C@H](CCCCN)NC(=O)[C@H](C)NC(=O)[C@@H](NC(=O)[C@@H](N)CCCCN)[C@@H](C)CC)C(=O)N[C@@H](Cc1c[nH]c2ccccc12)C(=O)N[C@@H](CCCCN)C(=O)N[C@@H](CCCNC(=N)N)C(=O)N[C@H](C(=O)N[C@@H](Cc1c[nH]c2ccccc12)C(=O)N[C@@H](CCCCN)C(=O)N[C@H](C(=O)N[C@@H](CC(C)C)C(=O)N[C@@H](CCCNC(=N)N)C(=O)N[C@@H](CCCNC(=N)N)C(=O)N[C@@H](CCCNC(=N)N)C(=O)O)[C@@H](C)CC)[C@@H](C)CC [PA13, reference compound] (H-KIAKRIWKRIWKILRRR-OH) | 262 µg/mL | 131.0 | 16.4 | 16.4 | 65.5 | 8.5 | 16.4 | –
– | – | – | – | – | 0.25 µg/mL (≈ 0.334 µM) | 64 µg/mL (≈ 85.6 µM) | – | – | – | – | – | CC[C@H]1OC(=O)[C@H](C)[C@@H](O[C@H]2C[C@@](C)(OC)[C@@H](O)[C@H](C)O2)[C@H](C)[C@@H](O[C@@H]2O[C@H](C)C[C@H](N(C)C)[C@H]2O)[C@](C)(OC)C[C@@H](C)C(=O)[C@H](C)[C@@H](O)[C@]1(C)O [Claritromycin, clarithromycin, reference compound] | – | – | – | – | – | – | – | –
– | – | – | – | – | 0.25 µg/mL (≈ 0.523 µM) | 0.25 µg/mL (≈ 0.523 µM) | – | 0.25 µg/mL (≈ 0.523 µM) | 1 µg/mL (≈ 2.09 µM) | 1 µg/mL (≈ 2.09 µM) | – | CNC(C)C1CCC(N)C(OC2C(N)CC(N)C(OC3OCC(C)(O)C(NC)C3O)C2O)O1 (centres unmarked) [Gentamicin, gentamicin, reference compound] | – | – | – | – | – | – | – | –
8.0 µg/mL (≈ 2.99 µM) | 4.0 µg/mL (≈ 1.5 µM) | 31.0 µg/mL (≈ 11.6 µM) | 16.0 µg/mL (≈ 5.99 µM) | 0.5 µg/mL (≈ 0.187 µM) | – | – | 8.0 µg/mL (≈ 2.99 µM) | – | – | – | – | CC[C@H](C)[C@H](N)C(=O)N[C@@H](C)C(=O)N[C@@H](CCCCN)C(=O)N[C@@H](CCCCN)C(=O)N[C@@H](Cc1ccccc1)C(=O)N[C@@H](Cc1c[nH]c2ccccc12)C(=O)N[C@@H](CCCCN)C(=O)N[C@@H](CCCCN)C(=O)N[C@@H](Cc1ccccc1)C(=O)N[C@@H](Cc1c[nH]c2ccccc12)C(=O)N[C@@H](CCCCN)C(=O)N[C@@H](Cc1ccccc1)C(=O)N[C@@H](Cc1c[nH]c2ccccc12)C(=O)N[C@@H](CCCCN)C(=O)N[C@H](C(=O)N[C@@H](Cc1ccccc1)C(=O)N[C@@H](CCCCN)C(=O)N[C@@H](CCCCN)C(=O)N[C@H](C(=O)N[C@@H](C)C(=O)O)[C@@H](C)CC)[C@@H](C)CC [Peptide R12] (H-IAKKFWKKFWKFWKIFKKIA-OH) | 16.18 µg/mL | 2.0 | 4.0 | 0.5 | 1.0 | 2.0 | 32.0 | –
– | – | – | – | – | 1 µg/mL (≈ 1.98 µM) | – | – | 1 µg/mL (≈ 1.98 µM) | – | 16 µg/mL (≈ 31.7 µM) | 1 µg/mL (≈ 1.98 µM) | [H]/N=C(\N/C(=N/[H])NCCCCCCNC(=N)NC(=N)Nc1ccc(Cl)cc1)Nc1ccc(Cl)cc1 [Chlorhexidine, chlorhexidine, reference compound] | – | – | – | – | – | – | – | –
– | – | – | – | – | 1250 µg/mL (≈ 5160 µM) | – | – | – | – | 31 µg/mL (≈ 128 µM) | 80 µg/mL (≈ 330 µM) | O=C(OOC(=O)c1ccccc1)c1ccccc1 [Benzoyl peroxide, reference compound] | – | – | – | – | – | – | – | –

SMILES | MIC S. aureus (S. aureus) | MIC P. aeruginosa (P. aeruginosa) | MIC K. pneumonia (K. pneumonia) | MIC E. faecium (E. faecium) | MIC C. acnes (C. acnes) | MIC (S. aureus) | MIC (K. pneumonia) | MIC E. coli (E. coli) | MIC (P. aeruginosa) | MIC (E. faecium; Enterococcus faecium, 96-well plate, serial dilutions, 32 °C, 13–18 h, 200 rpm, OD 550 nm) | MIC (E. coli) | MIC (C. acnes) | IC50, viability of Balb/c 3T3 cells [1] | Therapeutic Index S. aureus (S. aureus) | Therapeutic Index P. aeruginosa (P. aeruginosa) | Therapeutic Index K. pneumonia (K. pneumonia) | Therapeutic Index E. faecium (E. faecium) | Therapeutic Index E. coli (E. coli) | Therapeutic Index C. acnes (C. acnes) | reduction of cell viability ([1]; Balb/c 3T3, at 500 μg/mL)
CC(C)[C@H](NC(=O)[C@H](Cc1ccc(O)cc1)NC(=O)[C@H](Cc1c[nH]c2ccccc12)NC(=O)[C@H](CS)NC(=O)[C@H](Cc1ccccc1)NC(=O)CN)C(=O)N[C@@H](CS)C(=O)N[C@@H](C)C(=O)N[C@@H](CCCNC(=N)N)C(=O)N[C@@H](CCCNC(=N)N)C(=O)N[C@@H](CC(N)=O)C(=O)NCC(=O)N[C@@H](C)C(=O)N[C@@H](CCCNC(=N)N)C(=O)N[C@H](C(=O)N[C@@H](CS)C(=O)N[C@@H](Cc1ccc(O)cc1)C(=O)N[C@@H](CCCNC(=N)N)C(=O)N[C@@H](CCCNC(=N)N)C(=O)N[C@@H](CS)C(=O)N[C@@H](CC(N)=O)C(=O)O)C(C)C [AA139, reference compound] (H-GFCWYVCARRNGARVCYRRCN-OH; N-terminus and C-terminus assumed) | 8.0 µg/mL (≈ 3.13 µM) | 16.0 µg/mL (≈ 6.26 µM) | 8.0 µg/mL (≈ 3.13 µM) | 16.0 µg/mL (≈ 6.26 µM) | 63.0 µg/mL (≈ 24.7 µM) | – | – | 4.0 µg/mL (≈ 1.57 µM) | – | – | – | – | 627.5 µg/mL | 78.5 | 39.3 | 78.5 | 39.3 | 157.0 | 10.0 | 36%
